Laboratory results from patent publication US20230159532A1, “PARATHYROID HORMONE (PTH) RECEPTOR ANTAGONISTS AND USES THEREOF” (Crinetics Pharmaceuticals, Inc., priority 2021, published 2023).

molecular target: T1, human PTHR1 receptor (Homo sapiens, UniProt Q03431); test: Competitive antagonist binding assay for hPTH-R1 (radioactive competition binding, SPA beads); conditions: human PTHR1 membranes, [125I]-[Nle8,18,Tyr34]-PTH(1-34) 0.2 nM, 90 minutes at room temperature; read-out: hPTHR1 Ki
T1 construct: purchased Eurofins HTS030M
T1 sequence (Q03431 27-593): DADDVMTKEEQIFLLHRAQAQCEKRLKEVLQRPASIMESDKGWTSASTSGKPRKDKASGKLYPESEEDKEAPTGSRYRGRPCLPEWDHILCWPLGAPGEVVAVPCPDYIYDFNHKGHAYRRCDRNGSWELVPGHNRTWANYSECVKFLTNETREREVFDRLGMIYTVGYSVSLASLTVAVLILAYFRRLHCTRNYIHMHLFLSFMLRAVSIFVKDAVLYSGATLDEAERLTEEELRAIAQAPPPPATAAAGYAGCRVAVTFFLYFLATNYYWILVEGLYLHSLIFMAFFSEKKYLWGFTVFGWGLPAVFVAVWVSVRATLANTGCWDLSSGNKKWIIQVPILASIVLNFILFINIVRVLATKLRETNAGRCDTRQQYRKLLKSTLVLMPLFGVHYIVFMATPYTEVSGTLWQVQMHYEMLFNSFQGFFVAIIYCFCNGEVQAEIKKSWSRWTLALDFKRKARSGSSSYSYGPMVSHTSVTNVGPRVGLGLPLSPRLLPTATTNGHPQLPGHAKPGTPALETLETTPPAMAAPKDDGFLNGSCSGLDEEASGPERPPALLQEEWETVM
Summary of the method: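 Displacement of 0.2 nM radioiodinated [Nle8,18,Tyr34]-PTH(1-34) from membrane-bound human PTHR1 measured by scintillation proximity after 90 min at room temperature. Compounds typically 0-10,000 nM final, pH 7.4 HEPES/Mg/Ca buffer with BSA and detergent. Ki calculated from competition data.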

SMILES	Ki
CCN1C(=O)N(c2c(F)cc(NCCNCCO)cc2F)c2cc(C#N)ccc2-c2cc(C(F)(F)F)cnc21 [1-98, 10-[2,6-difluoro-4-({2-[(2-hydroxyethyl)amino]ethyl}amino)phenyl]-8-ethyl-9-oxo-4-(trifluoromethyl)-6,8,10-triazatricyclo[9.4.0.0^2,7]pentadeca-1(11),2(7),3,5,12,14-hexaene-13-carbonitrile]	< 100 nM
CCN1C(=O)N(c2c(F)cc(NCCNCCCC(=O)O)cc2F)c2cc(Cl)ccc2-c2cccnc21 [1-6, 4-({2-[(4-{13-chloro-8-ethyl-9-oxo-6,8,10-triazatricyclo[9.4.0.0^2,7]pentadeca-1(11),2(7),3,5,12,14-hexaen-10-yl}-3,5-difluorophenyl)amino]ethyl}amino)butanoic acid]	< 100 nM
CCN1C(=O)N(c2c(F)cc(NCCNCCO)cc2F)c2cc(Cl)ccc2-c2cc(C#N)ncc21 [3-22, 13-chloro-10-[2,6-difluoro-4-({2-[(2-hydroxyethyl)amino]ethyl}amino)phenyl]-8-ethyl-9-oxo-5,8,10-triazatricyclo[9.4.0.0^2,7]pentadeca-1(11),2(7),3,5,12,14-hexaene-4-carbonitrile]	< 100 nM
CCN1C(=O)N(c2c(F)cc(NCCNC)cc2F)c2cccc(C)c2-c2cc(Cl)cnc21 [1-21, 4-chloro-10-(2,6-difluoro-4-{[2-(methylamino)ethyl]amino}phenyl)-8-ethyl-15-methyl-6,8,10-triazatricyclo[9.4.0.0^2,7]pentadeca-1(11),2(7),3,5,12,14-hexaen-9-one]	< 100 nM
CCN1C(=O)N(c2c(F)cc(NCCNCCCC(=O)O)cc2F)c2cc(C(F)(F)F)ccc2-c2cc(F)cnc21 [1-69, 4-{[2-({4-[8-ethyl-4-fluoro-9-oxo-13-(trifluoromethyl)-6,8,10-triazatricyclo[9.4.0.0^2,7]pentadeca-1(11),2(7),3,5,12,14-hexaen-10-yl]-3,5-difluorophenyl}amino)ethyl]amino}butanoic acid]	< 100 nM
CCN1C(=O)N(c2c(F)cc(NCCNCCCC(=O)O)cc2F)c2cc(Cl)ccc2-c2cc(Cl)cnc21 [1-10, 4-({2-[(4-{4,13-dichloro-8-ethyl-9-oxo-6,8,10-triazatricyclo[9.4.0.0^2,7]pentadeca-1(11),2(7),3,5,12,14-hexaen-10-yl}-3,5-difluorophenyl)amino]ethyl}amino)butanoic Acid]	< 100 nM
O=C1N(CC2CC2)c2ncc(Cl)cc2-c2ccc(Cl)cc2N1c1c(F)cc(NCCNCCO)cc1F [1-52, 4,13-dichloro-8-(cyclopropylmethyl)-10-[2,6-difluoro-4-({2-[(2-hydroxyethyl)amino]ethyl}amino)phenyl]-6,8,10-triazatricyclo[9.4.0.0^2,7]pentadeca-1(11),2(7),3,5,12,14-hexaen-9-one]	< 100 nM
CCN1C(=O)N(c2c(F)cc(NCCNC3CCOCC3)cc2F)c2cc(Cl)ccc2-c2cc(F)cnc21 [1-19, 13-chloro-10-[2,6-difluoro-4-({2-[(oxan-4-yl)amino]ethyl}amino)phenyl]-8-ethyl-4-fluoro-6,8,10-triazatricyclo[9.4.0.0^2,7]pentadeca-1(11),2(7),3,5,12,14-hexaen-9-one]	< 100 nM
CCN1C(=O)N(c2c(F)cc(NCCNC)cc2F)c2cc(C#N)cc(F)c2-c2cc(F)cnc21 [1-102, 10-(2,6-difluoro-4-{[2-(methylamino)ethyl]amino}phenyl)-8-ethyl-4,15-difluoro-9-oxo-6,8,10-triazatricyclo[9.4.0.0^2,7]pentadeca-1(11),2(7),3,5,12,14-hexaene-13-carbonitrile]	< 100 nM
CCN1C(=O)N(c2c(F)cc(NCCNCCO)cc2F)c2cc(C(F)(F)F)ccc2-c2cc(F)cnc21 [1-67, 10-[2,6-difluoro-4-({2-[(2-hydroxyethyl)amino]ethyl}amino)phenyl]-8-ethyl-4-fluoro-13-(trifluoromethyl)-6,8,10-triazatricyclo[9.4.0.0^2,7]pentadeca-1(11),2(7),3,5,12,14-hexaen-9-one]	< 100 nM
CCN1C(=O)N(c2c(F)cc(NCCNCCN3CCOC3=O)cc2F)c2cc(C#N)ccc2-c2cc(Cl)cnc21 [1-191, 4-chloro-10-{2,6-difluoro-4-[(2-{[2-(2-oxo-1,3-oxazolidin-3-yl)ethyl]amino}ethyl)amino]phenyl}-8-ethyl-9-oxo-6,8,10-triazatricyclo[9.4.0.0^2,7]pentadeca-1(11),2(7),3,5,12,14-hexaene-13-carbonitrile]	< 100 nM
CCN1C(=O)N(c2ncc(NCCNC)cc2F)c2cc(Cl)ccc2-c2cc(Cl)cnc21 [2-11, 4,13-dichloro-8-ethyl-10-(3-fluoro-5-{[2-(methylamino)ethyl]amino}pyridin-2-yl)-6,8,10-triazatricyclo[9.4.0.0^2,7]pentadeca-1(11),2(7),3,5,12,14-hexaen-9-one]	< 100 nM
CCN1C(=O)N(c2c(F)cc(NCCNC3CCOCC3)cc2F)c2cc(Cl)ccc2-c2nc(C#N)ccc21 [3-17, 13-chloro-10-[2,6-difluoro-4-({2-[(oxan-4-yl)amino]ethyl}amino)phenyl]-8-ethyl-9-oxo-3,8,10-triazatricyclo[9.4.0.0^2,7]pentadeca-1(11),2(7),3,5,12,14-hexaene-4-carbonitrile]	1000 to 10000 nM

The remaining lines, values ahead:

Ki	SMILES
< 100 nM	CCN1C(=O)N(c2c(F)cc(NCCNCCCS(=O)(=O)O)cc2F)c2cc(C#N)ccc2-c2cc(Cl)cnc21 [1-175, 3-({2-[(4-{4-chloro-13-cyano-8-ethyl-9-oxo-6,8,10-triazatricyclo[9.4.0.0^2,7]pentadeca-1(11),2(7),3,5,12,14-hexaen-10-yl}-3,5-difluorophenyl)amino]ethyl}amino)propane-1-sulfonic acid]
< 100 nM	Cc1cc(C#N)cc2c1-c1cc(F)cnc1N(C)C(=O)N2c1c(F)cc(NCCNCCO)cc1F [1-112, 10-[2,6-difluoro-4-({2-[(2-hydroxyethyl)amino]ethyl}amino)phenyl]-4-fluoro-8,15-dimethyl-9-oxo-6,8,10-triazatricyclo[9.4.0.0^2,7]pentadeca-1(11),2(7),3,5,12,14-hexaene-13-carbonitrile]
< 100 nM	CCN1C(=O)N(c2c(F)cc(NCCNCCCC(=O)O)cc2F)c2cc(C#N)cc(F)c2-c2cc(Cl)cnc21 [1-101, 4-({2-[(4-{4-chloro-13-cyano-8-ethyl-15-fluoro-9-oxo-6,8,10-triazatricyclo[9.4.0.0^2,7]pentadeca-1(11),2(7),3,5,12,14-hexaen-10-yl}-3,5-difluorophenyl)amino]ethyl}amino)butanoic acid]
< 100 nM	CCN1C(=O)N(c2c(F)cc(NCCN)cc2F)c2cc(C#N)ccc2-c2cc(Cl)cnc21 [1-126, 10-{4-[(2-aminoethyl)amino]-2,6-difluorophenyl}-4-chloro-8-ethyl-9-oxo-6,8,10-triazatricyclo[9.4.0.0^2,7]pentadeca-1(11),2(7),3,5,12,14-hexaene-13-carbonitrile]
< 100 nM	CCN1C(=O)N(c2c(F)cc(NCCNC[C@@H](C)O)cc2F)c2cc(C#N)ccc2-c2cc(Cl)cnc21 [1-186, 4-chloro-10-{2,6-difluoro-4-[(2-{[(2R)-2-hydroxypropyl]amino}ethyl)amino]phenyl}-8-ethyl-9-oxo-6,8,10-triazatricyclo[9.4.0.0^2,7]pentadeca-1(11),2(7),3,5,12,14-hexaene-13-carbonitrile]
< 100 nM	Cc1cc(Cl)cc2c1-c1cc(F)cnc1N(C(C)C)C(=O)N2c1c(F)cc(NCCNCCO)cc1F [1-79, 13-chloro-10-[2,6-difluoro-4-({2-[(2-hydroxyethyl)amino]ethyl}amino)phenyl]-4-fluoro-15-methyl-8-(propan-2-yl)-6,8,10-triazatricyclo[9.4.0.0^2,7]pentadeca-1(11),2(7),3,5,12,14-hexaen-9-one]
< 100 nM	CCN1C(=O)N(c2c(F)cc(NCCNC3CCOCC3)cc2F)c2cc(Cl)ccc2-c2cccnc21 [1-4, 13-chloro-10-[2,6-difluoro-4-({2-[(oxan-4-yl)amino]ethyl}amino)phenyl]-8-ethyl-6,8,10-triazatricyclo[9.4.0.0^2,7]pentadeca-1(11),2(7),3,5,12,14-hexaen-9-one]
< 100 nM	CCN1C(=O)N(c2c(F)cc(NCCNCCC(N)=O)cc2F)c2cc(C#N)ccc2-c2cc(Cl)cnc21 [1-161, 3-({2-[(4-{4-chloro-13-cyano-8-ethyl-9-oxo-6,8,10-triazatricyclo[9.4.0.0^2,7]pentadeca-1(11),2(7),3,5,12,14-hexaen-10-yl}-3,5-difluorophenyl)amino]ethyl}amino)propanamide]
< 100 nM	CCN1C(=O)N(c2c(F)cc(NCCNC[C@H](C)O)cc2F)c2cc(C#N)ccc2-c2cc(Cl)cnc21 [1-180, 4-chloro-10-{2,6-difluoro-4-[(2-{[(2S)-2-hydroxypropyl]amino}ethyl)amino]phenyl}-8-ethyl-9-oxo-6,8,10-triazatricyclo[9.4.0.0^2,7]pentadeca-1(11),2(7),3,5,12,14-hexaene-13-carbonitrile]
